From ChEMBL document CHEMBL1201862, “PubChem BioAssay data set” (2004)
Activity calls are given as the source filed them.

Key:
[1] = Luminescence Cell-Based Dose Confirmation HTS to Identify Activators of 5'UTR Stem-Loop Driven Alpha-Synuclein mRNA Translation in H4 Neuroglioblastoma Cells. [Related pubchem assays: 1829 (Project Summary), 1814 (Primary HTS)]; assay type: functional
[2] = Luminescence Cell-Based Dose Response HTS to Identify Activators of Luciferase Translation or Activity in H4 […] Cells. [Related pubchem assays: 1829 (Project Summary), 1814 (Primary HTS)]; assay type: functional
Bcl-2-like protein 10 = molecular target: T1, Bcl-2-like protein 10 (Homo sapiens, UniProt Q9HD36); assay: Bcl-B/TR3 peptide binding disruption – biochemical, fluorescence polarization, FITC-TR3 peptide, selectivity assay for Bfl-1 inhibitor project, primary screen (AID 748);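 further: fluorescence polarization from a fluorescein-labelled TR3 peptide binding purified Bcl-B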
T1 sequence (Q9HD36 whole entry): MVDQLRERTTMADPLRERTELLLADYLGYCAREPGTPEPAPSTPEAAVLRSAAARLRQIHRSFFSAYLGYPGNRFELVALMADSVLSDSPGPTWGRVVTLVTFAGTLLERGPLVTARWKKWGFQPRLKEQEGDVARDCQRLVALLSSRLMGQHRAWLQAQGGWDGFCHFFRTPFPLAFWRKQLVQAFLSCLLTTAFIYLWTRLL

H4 = assay: Luminescence Cell-Based Dose Response HTS to Identify Activators of 5'UTR Stem-Loop Driven Prion Protein mRNA Translation in H4 Neuroglioblastoma Cells. [Related pubchem assays: 1829 (Project Summary), 1814 (Primary HTS)]; assay type: functional; settings: Homo sapiens
Beta-galactosidase = Beta-galactosidase (Escherichia coli, UniProt Q8VNN2); assay: detection-enzyme interference by beta-gal modulators – biochemical, E. coli enzyme, set 3, artefact control for CCR6 antagonist project, dose response (AID 504712); assay type: functional
[3] = viability loss in HepG2 hepatoma cells – cell-based, ATP luminescence, cherry-pick, activator set 2, cytotoxicity control, dose response (AID 1053143); assay type: functional
[4] = molecular target: T2, Oxysterols receptor LXR-beta (Homo sapiens, UniProt P55055); assay type: functional, cell-based;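 further: agonist activity at LXR measured by a cell-based luminescence readout across a dose range, run as a counterscreen for daf-12 agonists; HEK293 cells with Gal4-LXR fusion and GAL4-driven luciferase reporter; potency for activation of Gal4-LXR reporter so compounds are agonists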
T2 sequence (P55055 whole entry): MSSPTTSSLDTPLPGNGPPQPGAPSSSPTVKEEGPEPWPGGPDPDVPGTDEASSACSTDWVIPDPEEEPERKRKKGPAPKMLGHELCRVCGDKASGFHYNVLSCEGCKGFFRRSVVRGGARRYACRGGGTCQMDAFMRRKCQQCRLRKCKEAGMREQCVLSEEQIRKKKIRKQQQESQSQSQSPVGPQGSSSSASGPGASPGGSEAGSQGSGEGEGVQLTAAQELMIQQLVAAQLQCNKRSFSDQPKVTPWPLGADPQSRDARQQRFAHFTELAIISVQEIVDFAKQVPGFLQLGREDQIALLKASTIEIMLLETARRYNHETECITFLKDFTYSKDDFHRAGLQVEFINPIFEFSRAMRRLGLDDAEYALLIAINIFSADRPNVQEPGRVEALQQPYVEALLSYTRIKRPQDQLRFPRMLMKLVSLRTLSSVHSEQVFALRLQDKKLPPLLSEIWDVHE

[5] = molecular target: Glyceraldehyde-3-phosphate dehydrogenase (Homo sapiens, UniProt P04406)
Trypsin = Trypsin (Sus scrofa, UniProt P00761); assay: trypsin protease activity blockade – biochemical, quenched peptide fluorescence, cherry-pick, selectivity assay for Rce1 protease inhibitor project, dose response (AID 488789)
CAAX prenyl protease 2 = molecular target: T3, CAAX prenyl protease 2 (Saccharomyces cerevisiae S288c, UniProt Q03530); assay type: biochemical
T3 sequence (Q03530 whole entry): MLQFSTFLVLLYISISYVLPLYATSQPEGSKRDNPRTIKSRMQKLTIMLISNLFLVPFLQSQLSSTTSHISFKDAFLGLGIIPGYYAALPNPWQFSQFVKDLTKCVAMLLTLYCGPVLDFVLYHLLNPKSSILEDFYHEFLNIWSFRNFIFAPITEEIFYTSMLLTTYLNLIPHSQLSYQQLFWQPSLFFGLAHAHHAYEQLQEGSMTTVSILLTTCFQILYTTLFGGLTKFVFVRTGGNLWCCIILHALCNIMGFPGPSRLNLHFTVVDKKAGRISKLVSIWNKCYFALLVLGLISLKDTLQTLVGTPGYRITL

[6] = reduced cellular PGC1a acetyl-lysine signal – cell-based, cherry-picked samples, dose response (AID 720514); assay type: functional;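 further: potency may reflect raised or lowered acetylation signal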
[7] = M. tuberculosis H37Rv growth inhibitors, H37Rv strain (AID 1626); assay type: functional
Major prion protein = Major prion protein (Homo sapiens, UniProt P04156); assay type: functional, cell-based
[8] = NIH-3T3 fibroblast cytotoxicity, dose response, cytotoxicity control, cell-based, fluorescence, Alamar Blue, secondary assay (AID 2327); assay type: functional;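 further: NIH-3T3 mouse fibroblasts cultured with fluconazole at 8 µg/mL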
[9] = fluconazole-exposed Candida albicans growth modulators – fluorescence, retest, confirmation (AID 2467); assay type: functional, cell-based
[10] = viability of PTEN-deleted HCT116 cells – cell-based, HCT116 PTEN knockout, dose response (AID 1047); assay type: functional;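 further: HCT116 colon tumor cells with PTEN knocked out; cells exposed to compound for 60 hours before readout; potency for loss of cell viability measured by luminescence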
[11] = viability of HCT116 lacking mutant beta-catenin – cell-based, human colon tumor, dose response (AID 1045); assay type: functional;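 further: HCT116 colon tumor cells with beta catenin knocked out; cells exposed to compound for 60 hours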

Compound: O=C(CCN1CCc2ccccc21)c1ccc2c(c1)OCCO2
- EC50 [1]: 53.2 µM (active)
- EC50 [2]: 110 µM (active)
- IC50 (Bcl-2-like protein 10): 59.3 µM (inactive)
- EC50 (H4): 46.1 µM (active)

Compound: CCCC(=O)N1c2ccccc2C(=C2SC(C(=O)OC)=C(C(=O)OC)S2)C(=S)C1(C)C
- EC50 [1]: > 60 µM (not active)
- EC50 [2]: > 120 µM (not active)
- EC50 (H4): > 120 µM (not active)
- IC50 (Beta-galactosidase): > 66.6 µM (inactive)

Compound: O=C(Nc1ncccc1O)c1cc2ccccc2o1
- AC50 [3]: 26 µM (active)
- EC50 [4]: > 67.6 µM (inactive)

Compound: COc1ccc(N2CCN(C3=C(Cl)C(=O)N(c4cccc(C)c4)C3=O)CC2)cc1
- IC50 [5]: > 50 µM (inconclusive)

Compound: COc1cc2cc(C(=O)O)[nH]c2c(OC)c1OC
- AC50 (Trypsin): 23 µM (active)
- AC50 (CAAX prenyl protease 2): > 100 µM (inactive)

Compound: CCc1ccc(NC(=O)CSc2nnc(-c3cnccn3)n2Cc2ccco2)cc1
- AC50 [6]: 32.5 µM (active)

Compound: CCCc1ccc(-c2cc(C(=O)NC3=NCCS3)c3ccccc3n2)cc1
- IC50 [7]: > 100 µM (active)

Compound: Cc1nc2ccc(Br)cc2c(-c2ccccc2)c1C(=O)O
- IC50 (Major prion protein): 5.47 µM (active)
- IC50 (cells): > 138 µM (inactive)

Compound: COc1ccc(Nc2cc(C)nc3nc(C)nn23)cc1Cl
- IC50 (Bcl-2-like protein 10): > 100 µM (inactive)

Compound: O=C(COc1ccccc1)Nc1cccc(-c2nc3cc4ccccc4cc3[nH]2)c1
- EC50 [8]: 7.43 µM (active)
- EC50 [9]: 1.64 µM (active)
- EC50 [10]: 11.8 µM (active)
- EC50 [11]: 12.1 µM (active)
- AC50 (Trypsin): 5.74 µM (active)
